Test results as given in a compilation of properties of binary mixtures (doi:10.1039/c8ra04127j).

Assay: xn = mol fraction of the nth substance listed
Settings: 100 kPa, x2 = 0

CC#N + C[N+](C)(C)CCC[n+]1ccccc1.N#C[N-]C#N.N#C[N-]C#N
viscosity (283.15 K): 0.401 mPa·s | viscosity (288.15 K): 0.382 mPa·s | viscosity (293.15 K): 0.364 mPa·s | viscosity (298.15 K): 0.348 mPa·s | viscosity (303.15 K): 0.333 mPa·s | viscosity (308.15 K): 0.32 mPa·s | viscosity (313.15 K): 0.307 mPa·s | viscosity (318.15 K): 0.296 mPa·s | viscosity (323.15 K): 0.285 mPa·s
